{"source": "patent US20160317525A1", "about": "(Teva Pharmaceutical Industries, Ltd., priority 2013, published 2016)", "key": {"[1]": {"test_system": "MOG induced EAE", "assay": "Laquinimod combined with teriflunomide in MOG induced EAE (Example 2)", "format": "in vivo, mice of the C57BL/6 strain", "conditions": "Day 1-30; for GMS: group mean score; for MMS: mean maximal score; for % inhibition (GMS) / % inhibition (Incidence) / % inhibition (MMS): vs vehicle"}, "[2]": {"conditions": "animal studies; cited from earlier work"}, "[3]": {"test_system": "experimental autoimmune encephalomyelitis", "conditions": "in mice; Merill et al., 2009; cited from earlier work"}, "[4]": {"molecular_target": "CYP2C9 (Homo sapiens, UniProt P11712)", "sequence (P11712 whole entry)": "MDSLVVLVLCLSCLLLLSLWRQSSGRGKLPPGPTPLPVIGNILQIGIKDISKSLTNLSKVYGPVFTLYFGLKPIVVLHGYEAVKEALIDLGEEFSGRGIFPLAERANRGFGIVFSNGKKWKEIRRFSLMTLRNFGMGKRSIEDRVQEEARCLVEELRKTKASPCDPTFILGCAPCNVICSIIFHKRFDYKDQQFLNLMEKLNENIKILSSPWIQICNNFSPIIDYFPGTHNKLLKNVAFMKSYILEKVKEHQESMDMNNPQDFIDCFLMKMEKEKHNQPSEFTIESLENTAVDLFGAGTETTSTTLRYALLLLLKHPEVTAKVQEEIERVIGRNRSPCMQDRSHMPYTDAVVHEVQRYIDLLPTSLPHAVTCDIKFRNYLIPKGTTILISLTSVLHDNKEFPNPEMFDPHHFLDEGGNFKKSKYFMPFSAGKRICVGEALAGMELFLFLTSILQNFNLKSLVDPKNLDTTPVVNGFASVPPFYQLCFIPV", "conditions": "O'Connor et al. 2006 and Warneke et al. 2009; cited from earlier work"}, "[5]": {"conditions": "7 mg/day and 14 mg/day; O'Connor et al. 2011; cited from earlier work"}}}
{"smiles": "CCN(C(=O)c1c(O)c2c(Cl)cccc2n(C)c1=O)c1ccccc1", "note": "[Laquinimod, 5-chloro-N-ethyl-4-hydroxy-1-methyl-2-oxo-N-phenyl-1,2-dihydroquinoline-3-carboxamide]", "values": [{"measurement": "Duration", "setting": "[1]; Laquinimod 5 mg/kg/day gavage", "value": "5.7 ± 5.1", "unit": "days"}, {"measurement": "Incidence", "setting": "[1]; Laquinimod 5 mg/kg/day gavage", "value": "9/15"}, {"measurement": "Mortality", "setting": "[1]; Laquinimod 5 mg/kg/day gavage", "value": "0/15"}, {"measurement": "Onset", "setting": "[1]; Laquinimod 5 mg/kg/day gavage", "value": "20.5 ± 6.6", "unit": "days"}, {"measurement": "Duration", "setting": "[1]; Laquinimod 25 mg/kg/day gavage", "value": "1.3 ± 3.5", "unit": "days"}, {"measurement": "Incidence", "setting": "[1]; Laquinimod 25 mg/kg/day gavage", "value": "2/15"}, {"measurement": "Mortality", "setting": "[1]; Laquinimod 25 mg/kg/day gavage", "value": "0/15"}, {"measurement": "Onset", "setting": "[1]; Laquinimod 25 mg/kg/day gavage", "value": "26.3 ± 4.4", "unit": "days"}, {"measurement": "GMS", "setting": "[1]; Laquinimod 5 mg/kg/day gavage", "value": "1.02 ± 1.01"}, {"measurement": "GMS", "setting": "[1]; Laquinimod 25 mg/kg/day gavage", "value": "0.18 ± 0.52"}, {"measurement": "MMS", "setting": "[1]; Laquinimod 5 mg/kg/day gavage", "value": "1.9 ± 1.8"}, {"measurement": "MMS", "setting": "[1]; Laquinimod 25 mg/kg/day gavage", "value": "0.4 ± 1.1"}, {"measurement": "% inhibition (GMS)", "setting": "[1]; Laquinimod 5 mg/kg/day gavage", "value": 58.4, "unit": "%"}, {"measurement": "% inhibition (Incidence)", "setting": "[1]; Laquinimod 5 mg/kg/day gavage", "value": 35.7, "unit": "%"}, {"measurement": "% inhibition (MMS)", "setting": "[1]; Laquinimod 5 mg/kg/day gavage", "value": 45.7, "unit": "%"}, {"measurement": "% inhibition (GMS)", "setting": "[1]; Laquinimod 25 mg/kg/day gavage", "value": 92.7, "unit": "%"}, {"measurement": "% inhibition (Incidence)", "setting": "[1]; Laquinimod 25 mg/kg/day gavage", "value": 85.7, "unit": "%"}, {"measurement": "% inhibition (MMS)", "setting": "[1]; Laquinimod 25 mg/kg/day gavage", "value": 88.6, "unit": "%"}]}
{"smiles": "C/C(O)=C(\\C#N)C(=O)Nc1ccc(C(F)(F)F)cc1", "note": "[Teriflunomide, (2Z)-2-cyano-3-hydroxy-N-[4-(trifluoromethyl)phenyl]but-2-enamide]", "values": [{"measurement": "teratogenicity", "setting": "[2]", "value": "teratogenic"}, {"measurement": "minimal effective dose", "setting": "[3]", "value": 3, "unit": "mg/kg"}, {"measurement": "CYP2C9 inhibition", "setting": "[4]", "value": "inhibit CYP2C9"}, {"measurement": "Duration", "setting": "[1]; Teriflunomide 3 mg/kg gavage", "value": "11.6 ± 2.3", "unit": "days"}, {"measurement": "Incidence", "setting": "[1]; Teriflunomide 3 mg/kg gavage", "value": "15/15"}, {"measurement": "Mortality", "setting": "[1]; Teriflunomide 3 mg/kg gavage", "value": "0/15"}, {"measurement": "Onset", "setting": "[1]; Teriflunomide 3 mg/kg gavage", "value": "14.0 ± 1.5", "unit": "days"}, {"measurement": "Duration", "setting": "[1]; Teriflunomide 10 mg/kg gavage", "value": "7.5 ± 5.5", "unit": "days"}, {"measurement": "Incidence", "setting": "[1]; Teriflunomide 10 mg/kg gavage", "value": "12/15"}, {"measurement": "Mortality", "setting": "[1]; Teriflunomide 10 mg/kg gavage", "value": "0/15"}, {"measurement": "Onset", "setting": "[1]; Teriflunomide 10 mg/kg gavage", "value": "18.3 ± 6.4", "unit": "days"}, {"measurement": "GMS", "setting": "[1]; Teriflunomide 3 mg/kg gavage", "value": "2.34 ± 0.65"}, {"measurement": "GMS", "setting": "[1]; Teriflunomide 10 mg/kg gavage", "value": "1.40 ± 1.18"}, {"measurement": "MMS", "setting": "[1]; Teriflunomide 3 mg/kg gavage", "value": "3.7 ± 0.6"}, {"measurement": "MMS", "setting": "[1]; Teriflunomide 10 mg/kg gavage", "value": "2.4 ± 1.7"}, {"measurement": "% inhibition (GMS)", "setting": "[1]; Teriflunomide 3 mg/kg gavage", "value": 4.5, "unit": "%"}, {"measurement": "% inhibition (GMS)", "setting": "[1]; Teriflunomide 10 mg/kg gavage", "value": 42.9, "unit": "%"}, {"measurement": "% inhibition (Incidence)", "setting": "[1]; Teriflunomide 10 mg/kg gavage", "value": 14.3, "unit": "%"}, {"measurement": "% inhibition (MMS)", "setting": "[1]; Teriflunomide 10 mg/kg gavage", "value": 31.4, "unit": "%"}, {"measurement": "annualized relapse rate versus the placebo", "setting": "[5]", "value": "reduce the annualized relapse rate"}]}
